Reference: patent publication US20030129168A1, “Expression of proteins for treating asthma via ligand mediated activation of their encoding genes” (ARIAD Gene Therapeutics, Inc., priority 1996, published 2003)
Like-named read-outs stand apart in the source and are kept apart here.

Experiments:
[1] = test system: FKBP12-containing fusion proteins; test: Gene regulation applications of dimerizer (SEAP or hGH reporter systems); format: cell-based; settings: for transcription activation with stably integrated constructs: cells in which the transcription factor and reporter gene constructs are all stably integrated
Method: After overnight incubation (or longer), assay for target gene expression.
Secreted alkaline phosphatase activity can be easily measured from the supernatant of appropriately transfected cells using fluorescence-(see (10)), or chemiluminescence-(Tropix, Bedford, Mass.) based assays. Samples to be tested should first be incubated at 65° C. for 1 hour to inactivate endogenous alkaline phosphatase activity.

[2] = test system: cells; test: Toxicity in cell culture; format: cell-based
[3] = Immunosuppressive activity
[4] = Solubility of AP1510 in culture medium; format: physicochemical; settings: aqueous buffer, kinetic from ethanol stock; serial dilution in (aqueous) culture medium; read-out: highest concentration ensuring complete solubility
Method: In the latter case it is recommended that the highest concentration not exceed 5 uM, to ensure complete solubility in the (aqueous) medium. […]

[5] = test system: ZFHD1-FKBPx3 and FKBPx3-VP16 or FKBPx3-p65; test: Dimerizer-dependent transcriptional activation (SEAP) in transiently transfected 293 cells; format: cell-based
Method: 293 cells were grown in D-MEM (Gibco BRL) supplemented with 10% Bovine Calf Serum. Cells in 35 mm dishes (2.5×10^5 cells/dish) were transiently transfected with use of calcium phosphate precipitation (Ausubel et. al., 1994). Each dish received 375 ng pZHWTx8SVSEAP; 12ng pCGNNZFHD1-FKBPx3 and 25ng pCGNNFKBPx3-VP16 or pCGNNFKBPx3-p65. Following transfection, 2 ml fresh media was added and supplemented with FK1012 to the desired concentration. After a 24 hour incubation […] aliquot of media was removed and assayed for SEAP activity as described (Spencer et. al., 1993).
An analgous experiment was conducted using a wholly synthetic dimerizer, AP1510, in place of FK1012. Like FK1012, AP1510 is a divalent FKBP-binder and is capable of dimerizing chimeric proteins which contain FKBP domains. In this experiment, 293 cells were grown in DMEM supplemented with 10% Bovine Calf Serum. Cells in 10 cm dishes were transiently transfected by calcium phosphate precipitation (Natesan and Gilman, 1995, Mol. Cell Biol, 15, 5975-5982). Each plate received 1 μg of pZHWTx8SVSEAP reporter, 50 ng pCGNNZFHD1-FKBP3×3, 50 ng pCGNNF3p65 or pCGNNF3VP16. Following transfection, 2 ml fresh media was added and supplemented with AP1510 to the desired concentration. After 24 hrs, 100 μl of the media was assayed for SEAP activity as described (Spencer et al, 1993).

[6] = test system: myristoylated chimeric CD3/FKBP12 (MZF3E) receptor; test: FK1012 activation of myristoylated chimeric CD3/FKBP12 (MZF3E) receptor, NFAT SEAP reporter in Jurkat T cells; format: cell-based, human
Source text: In an illustrative case, this was accomplished by creating an intracellular receptor comprised of a small fragment of Src sufficient for posttranslational myristoylation (M), the cytoplasmic tail of zeta (Z; a component of the […] was also used), three consecutive FKBP12s (F3) and a flu epitope tag (E). […] The promoter of the SEAP reporter gene was constructed to be transcriptionally activated by nuclear factor of activated T cells (NFAT), which is assembled in the nucleus following TCR-signaling.
Specifically, 5 μg of the eukaryotic expression vector, pBJ5, containing a myristoylated chimeric receptor was co-transfected with 4 μg NFAT-SX. MZE, MZF1E, MZF2E and MZF3E contain 0, 1, 2, or 3 copies of FKBP12, respectively, downstream of a myristoylated CD3 cytoplasmic domain (see FIG. 2 of PCT/US94/01617). As a control, 5 μg of pBJ5 was used in a parallel transfection. After 24 hours, aliquots of each transfection containing approximately 10^5 cells were incubated with log dilutions of the drug, FK1012B, as indicated. As a positive control and to control for transfection efficiency, ionomycin (1 μm) and PMA (25 ng/ml) were added to aliquots from each transfection. After an additional 12 hour incubation, the supernatants were assayed for alkaline phosphatase activity and these activities were expressed relative to that of the positive control samples. […] Compare FIGS. 7 and 8 of PCT/US94/01617.

[7] = test system: chimeric FKBP12/CD3 (1FK3) receptor; test: FK1012A activation of chimeric FKBP12/CD3 (1FK3) receptor, NFAT-SX SEAP reporter; format: cell-based; settings: addition of 2 ng/ml FK506
Method: 5 μg of the eukaryotic expression vector, pBJ5, (based on pCDL-SR with a polylinker inserted between the 16S splice site and the poly A site), containing the chimeric receptor (1FK3), was co-transfected with 4 μg of the NFAT-inducible secreted alkaline phosphatase reporter plasmid, NFAT-SX. As a control, 5 μg of pBJ5 was used, instead of 1FK3/pBJ5, in a parallel transfection. After 24 hours, aliquots of each transfection containing approximately 10^5 cells were incubated with log dilutions of the drug FK1012A, as indicated. As a positive control and to control for transfection efficiency, ionomycin (1 μM) and PMA (25 ng/ml) were added to aliquots from each transfection. After an additional 14 hour incubation, the supernatants were assayed for alkaline phosphatase activity and these activities were expressed relative to that of the positive control samples. […] Each data point obtained was the average of two samples and the experiment was performed several times with similar results.

[8] = test system: NFAT; test: SEAP reporter activation by cross-linking chimeric receptor TAC/TAC/Z (TTZ) in TAg Jurkat cells; format: cell-based, human; settings: addition of 1 ng/ml FK506; TTZ-transfected TAg Jurkat cells on bound anti-TAC mAb
Source text: The plasmid pSXNeo/IL2 (IL2-SX) (FIG. 1 of PCT/US94/01617), which contains the placental secreted alkaline phosphatase gene under the control of human IL-2 promoter (−325 to +47; MCB(86) 6, 3042), and related plasmid variants (i.e. NFAT-SX, NFB-SX, OAP/Octl-SX, and AP-1-SX) in which the reporter gene is under the transcriptional control of the minimal IL-2 promoter (−325 to −294 and −72 to +47) combined with synthetic oligomers containing various promoter elements (i.e. NFAT, NKB, OAP/Oct-1, and AP1, respectively), were made by three piece ligations of 1) pPL/SEAP (Berger, et al., Gene (1988) 66,1) cut with Sspl and HindIII; 2) pSV2/Neo (Southern and Berg, J. Mol. Appl. Genet. (1982) 1, 332) cut with NdeI, blunted with Kilenow, then cut with PvuI; and 3) various promoter-containing plasmids (i.e. NFAT-CD8, B-CD8, cxl2lacZ-Oct-1, AP1-LUCIF3H, or cx151L2) (described below) cut with PvuI and HindIII. NFAT-CD8 contains 3 copies of the NFAT-binding site (−286 to −257; Genes and Dev. (1990) 4, 1823) and cx121acZ-Oct contains 4 copies of the OAP/Oct-1/(ARRE-1) binding site (MCB, (1988) 8, 1715) from the human IL-2 enhancer; B-CD8 contains 3 copies of the NFB binding site from the murine light chain (EMBO (1990) 9,4425) and AP1-LUCIF3H contains 5 copies of the AP-1 site (5′-[…]-3′) from the metallothionen promoter. […]

[9] = test system: cells; settings: in cell culture; cited from earlier work
[10] = test system: calcineurin-mediated TCR signaling; settings: cited from earlier work
[11] = molecular target: T1, FKBP12 (Homo sapiens, UniProt P62942); settings: 2:1 stoichiometry, cited from earlier work
[12] = test system: Jurkat cells stably transfected with MZF3E; test: Protein-tyrosine phosphorylation in whole cell lysates (alpha-phosphotyrosine antibodies); format: cell-based, human; settings: whole cell lysates at varying times after stimulation
Source text: The intracellular domains of the TCR, CD3 and zeta-chains interact with cytoplasmic protein tyrosine kinases following antigen stimulation. Specific members of the Src family (lck and/or fyn) phosphorylate one or more tyrosine residues of activation motifs within these intracellular domains (tyrosine activation motif, TAM). The tyrosine kinase ZAP-70 is recruited (via its two SH2 domains) to the tyrosine phosphorylated T-cell-receptor, activated, and is likely to be involved in the further downstream activation of phospholipase C. […] Tyrosine phosphorylation after treatment of cells with either anti-CD3 MAb or FK1012 was detected using monoclonal alpha-phosphotyrosine antibodies. Whole cell lysates were analysed at varying times after stimulation. […] The pattern consisted of a major band of 70 kDa, probably ZAP-70, and minor bands of 120 kDa, 62 kDa, 55 kDa and 42 kDa.

[13] = molecular target: T1, FKBP12; test: FK1012 binding affinity and stoichiometry; settings: linker positioned in the calcineurin binding domain of FK506

T1 sequence (P62942 whole entry): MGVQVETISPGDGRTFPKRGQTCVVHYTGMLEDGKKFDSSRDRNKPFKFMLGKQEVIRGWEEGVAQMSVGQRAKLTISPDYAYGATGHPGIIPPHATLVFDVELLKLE

Compound | transcription activation with stably integrated constructs [1] | concentration at which expression becomes detectable ([1]; gene regulation applications) | concentration at which expression peaks ([1]; gene regulation applications) | transcription activation compared with FK1012 ([1]; gene regulation applications) | toxicity to cells [2] | immunosuppressive activity [3] | solubility [4] | dimerizer-dependent transcriptional activation ([5]; 24 hrs) | alkaline phosphatase activity (FK1012B stimulations) ([6]; addition of 1 ng/ml FK506) | alkaline phosphatase activity (FK1012A stimulations) [7] | alkaline phosphatase activity due to NFAT [8] | EC50 ([6]; MZF3E in human (Jurkat) T cells, NFAT-driven SEAP reporter, read-out: EC50, secretion of alkaline phosphatase (SEAP)) | toxic (not toxic up to) [9] | inhibition of calcineurin-mediated TCR signaling / signalling pathways [10] | Kd ([11]; first binding event, read-out: Kd(1)) | Kd ([11]; second binding event, read-out: Kd(2)) | pattern of tyrosine-phosphorylated proteins [12] | concentration of peak transcriptional activation ([5]; 24 hour incubation) | FKBP12 binding [13]
CCC(C)(C)C(=O)C(=O)N1CCCC[C@H]1C(=O)O[C@H](CCc1ccc(OC)c(OC)c1)c1cccc(OCC(=O)NCCNC(=O)COc2cccc([C@@H](CCc3ccc(OC)c(OC)c3)OC(=O)[C@@H]3CCCCN3C(=O)C(=O)C(C)(C)CC)c2)c1 [AP1510] | activates transcription efficiently | approximately 10 nM | approximately 100 nM | activates transcription at lower concentrations and to a higher level than PK1012 | non-toxic to cells | no immunosuppressive activity | ≤ 5 µM | supports synthetic dimerizer-dependent transcriptional activation | – | – | – | – | – | – | – | – | – | – | –
C=CC[C@@H]1/C=C(\C)C[C@H](C)C[C@H](OC)[C@H]2O[C@@](O)(C(=O)C(=O)N3CCCC[C@H]3C(=O)O[C@H](/C(C)=C/[C@@H]3CC[C@@H](O)[C@H](OC)C3)[C@H](C)[C@@H](O)CC1=O)[C@H](C)C[C@@H]2OC [FK506] | – | – | – | – | – | – | – | – | dropped all stimulations to near background levels | dropped all stimulations to background levels | dropped all activity due to NFAT to background levels | – | – | – | – | – | – | – | –
FK1012 | poor | – | – | – | – | abolishes immunosuppressive activity | – | – | – | – | – | 50000 pM | > 0.1 mM | not inhibit calcineurin-mediated TCR signaling | 100 pM | 800 pM | A similar pattern of tyrosine-phosphorylated proteins was observed | 100 nM | leaving FKBP12 binding unaffected
